The values below come from ChEMBL document CHEMBL3217506, “Amidines bearing benzofuroxan or benzimidazole 1,3-dioxide core scaffolds as Trypanosoma cruzi-inhibitors: structural basis for their interactions with cruzipain” (Medchemcomm, 2012).

One data set concerns Trypanosoma cruzi. Description: Antitrypanosomal activity against epimastigote stage of Trypanosoma cruzi Tulahuen 2 after 5 days relative to untreated control. The conditions noted are these: Tulahuen 2, 120 h, read-out: ID50 (the source's name). Format: functional.
For data set [1], the target named is Cruzipain (Trypanosoma cruzi) (UniProt P25779). Description: Inhibition of Trypanosoma cruzi cruzipain using Z-Phe-Arg-AMC as substrate at pH 7.4 after 10 mins by spectrofluorimetry relative to untreated control.
For data set [2] the target is unchanged. Description: Inhibition of Trypanosoma cruzi cruzipain using Z-Phe-Arg-AMC as substrate at 100 uM at pH 7.4 after 10 mins by spectrofluorimetry relative to untreated control.
Data set [3] in a line: Cytotoxicity against human RBC assessed as hemolytic activity after 24 hrs by spectrophotometry. The format is cell-based, Erythrocyte. To be noted: human red blood cells (RBC), read-out: ID50.
Data set [4] has as its target Cruzipain (Trypanosoma cruzi) (UniProt P25779). Description: Inhibition of Trypanosoma cruzi cruzipain using Z-Phe-Arg-AMC as substrate at 100 uM at pH 5.3 after 10 mins by spectrofluorimetry relative to untreated control.
Data set [5] can be described thus: Selectivity index, ratio of ID50 for human RBC to ID50 for epimastigote stage of Trypanosoma cruzi Tulahuen 2.
The target in data set [6] is Cruzipain (Trypanosoma cruzi) (UniProt P25779). Description: Inhibition of Trypanosoma cruzi cruzipain using Z-Phe-Arg-AMC as substrate at 100 uM at pH 5.3 after 10 mins by spectrofluorimetry in presence of Triton X-100 relative to untreated control.

The structures appear in SMILES notation.

Sequence of Cruzipain (Trypanosoma cruzi) (P25779 123-467 limits assumed): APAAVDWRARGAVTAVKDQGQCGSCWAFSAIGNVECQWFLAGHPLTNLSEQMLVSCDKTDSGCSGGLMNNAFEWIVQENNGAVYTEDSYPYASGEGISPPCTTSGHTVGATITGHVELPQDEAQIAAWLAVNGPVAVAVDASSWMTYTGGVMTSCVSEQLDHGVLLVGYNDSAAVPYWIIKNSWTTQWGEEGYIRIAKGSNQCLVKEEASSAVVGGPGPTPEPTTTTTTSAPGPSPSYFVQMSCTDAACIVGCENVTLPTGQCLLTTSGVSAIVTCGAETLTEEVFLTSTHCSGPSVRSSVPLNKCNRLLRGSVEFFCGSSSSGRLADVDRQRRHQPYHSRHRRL

Turning to `N=C(N/N=C/c1ccc(O)cc1)SCc1ccc2no[n+]([O-])c2c1`, in the data set with Trypanosoma cruzi, the IC50 was 6.8 µM. This molecule also yielded an ID50 in data set [1] of 64.5 µM.

With `CC1(C)[N+]([O-])=c2ccc(CN3CCN(/C(=N/c4ccccc4)NCc4ccco4)CC3)cc2=[N+]1[O-]`, the inhibition (commonly how much of the control response was suppressed) in data set [2] is 15%. Moreover, the HC50 at 24 h in data set [3] was more than 200 µM.

As for `[O-][n+]1onc2ccc(CN3CCN(/C(=N/c4ccccc4)Nc4ccccc4)CC3)cc21`, the IC50 in the data set with Trypanosoma cruzi is 5.8 µM. Further, the inhibition in data set [2] was 12%; in data set [4] it was 47%. Moreover, the Selectivity Index in data set [5] was 18. The molecule further yielded an ID50 in data set [1] of 100 µM. Moreover, the HC50 at 24 h in data set [3] was determined as 105 µM.

In data set [4], `c1ccc(C/N=C(/Nc2ccccc2)N2CCNCC2)cc1` gave an inhibition of 5.4%.

Regarding `CC1CS(=O)(=O)CCN1/N=C/c1ccc([N+](=O)[O-])o1` (stereo unspecified) [NIFURTIMOX], the IC50 in the data set on Trypanosoma cruzi is 7.7 µM. Besides, the Selectivity Index in data set [5] is more than 13. The HC50 at 24 h in data set [3] is more than 100 µM.

With `[O-][n+]1onc2ccc(CN3CCN(/C(=N/c4ccccc4)NCCc4ccccc4)CC3)cc21`, in the data set on Trypanosoma cruzi, the IC50 was 1.2 µM. Moreover, the inhibition in data set [2] was determined as 25%; in data set [4], 34%. Further, the Selectivity Index in data set [5] came out at 31. In data set [1], the ID50 is more than 100 µM. The HC50 at 24 h in data set [3] was determined as 37 µM.

Regarding `C[C@@H]1[C@H](O)[C@@H](C)/C=C/C=C/C=C/C=C/C=C/C=C/C=C/[C@H](O[C@@H]2O[C@H](C)[C@@H](O)[C@H](N)[C@@H]2O)C[C@@H]2O[C@](O)(C[C@@H](O)C[C@@H](O)[C@H](O)CC[C@@H](O)C[C@@H](O)CC(=O)O[C@H]1C)C[C@H](O)[C@H]2C(=O)O`, the Selectivity Index in data set [5] was 10.

`c1ccc(CC/N=C(/Nc2ccccc2)N2CCNCC2)cc1` came in with an inhibition in data set [4] of 3.2%.

As for `CC/C(=N\N=C(\N)S)c1cccc(Br)c1`, in data set [1], the ID50 was 0.1 µM.

`[O-][n+]1onc2ccc(CN3CCN(/C(=N/c4ccccc4)NCc4ccco4)CC3)cc21`: the IC50 in the data set on Trypanosoma cruzi is 15 µM. For the same molecule, the inhibition in data set [2] turned out to be 0.3%; in data set [6] it was 45%; in data set [4], 44%. Further, the Selectivity Index in data set [5] was more than 13. Besides, the ID50 in data set [1] came to 100 µM. The HC50 at 24 h in data set [3] is more than 200 µM.

As to `N=C(N)N/N=C/c1ccc(OCc2ccc3no[n+]([O-])c3c2)cc1`, in the data set with Trypanosoma cruzi, the IC50 was more than 25 µM. The same molecule yielded an ID50 in data set [1] of 32 µM.

Consider `CC1(C)[N+]([O-])=c2ccc(CN3CCN(/C(=N/c4ccccc4)NCCc4ccccc4)CC3)cc2=[N+]1[O-]`, for which the IC50 with Trypanosoma cruzi was determined as 1 µM. Moreover, in data set [2], the inhibition came out at 30%. For the same molecule, in data set [5], the Selectivity Index was more than 50. In addition, the HC50 at 24 h in data set [3] is more than 50 µM.

In the case of `O=S(=O)(/C=C/c1ccc2no[n+]([O-])c2c1)c1ccccc1`, the IC50 with Trypanosoma cruzi is 1.6 µM. This molecule also displayed an ID50 in data set [1] of more than 50 µM.

Take `O=C(Cn1ccnc1[N+](=O)[O-])NCc1ccccc1` [BENZNIDAZOLE]: the IC50 in the data set on Trypanosoma cruzi was 7.4 µM.

`CC1(C)[N+]([O-])=c2ccc(CN3CCN(/C(=N/c4ccccc4)NCc4ccccc4)CC3)cc2=[N+]1[O-]`: the inhibition in data set [2] was 34%. Also, the HC50 at 24 h in data set [3] was more than 36 µM.

In data set [4], `c1ccc(/N=C(/Nc2ccccc2)N2CCNCC2)cc1` returned an inhibition of 6.3%.

For the molecule `[O-][n+]1onc2ccc(CN3CCN(/C(=N/c4ccccc4)NCc4ccccc4)CC3)cc21`, the figures for the inhibition in data set [2] and in data set [4] were 29% and 11%, respectively. Besides, in data set [3], the HC50 at 24 h was 83 µM.

In data set [4], `c1ccc(N/C(=N/Cc2ccco2)N2CCNCC2)cc1` displayed an inhibition of 10%.
